The target of test [1] is T1, AtPPO1 S305L Y361T V365L T431R L479M (SEQ ID NO.130) (Arabidopsis thaliana, UniProt P55826, L479M/S305L/T431R/V365L/Y361T).
T1 construct: made in house; host or cells: E. coli BL21 (DE3) hemG, crude extract
T1 sequence (P55826 35-537 S305L/Y361T/V365L/T431R/L479M): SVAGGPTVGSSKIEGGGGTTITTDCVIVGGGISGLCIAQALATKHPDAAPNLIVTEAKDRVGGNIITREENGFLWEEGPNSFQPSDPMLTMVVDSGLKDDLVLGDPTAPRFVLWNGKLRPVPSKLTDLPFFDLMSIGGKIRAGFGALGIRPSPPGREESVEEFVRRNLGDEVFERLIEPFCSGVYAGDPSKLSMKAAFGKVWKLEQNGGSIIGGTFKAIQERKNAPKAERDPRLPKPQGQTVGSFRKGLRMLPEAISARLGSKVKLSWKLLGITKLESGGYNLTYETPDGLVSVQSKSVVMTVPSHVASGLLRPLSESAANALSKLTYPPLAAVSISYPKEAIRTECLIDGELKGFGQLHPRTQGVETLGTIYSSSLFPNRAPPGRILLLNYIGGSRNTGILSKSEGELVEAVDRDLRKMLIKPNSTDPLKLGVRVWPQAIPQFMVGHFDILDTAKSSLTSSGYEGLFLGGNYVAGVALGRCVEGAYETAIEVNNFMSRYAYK
Put plainly: fluorescent Protoporphyrinogen Oxidase assay, crude extract. It counts as biochemical. Particulars: read-out: percentage inhibition.

Test [2] has as its target T2, AtPPO1 V365L Y426V L479N (SEQ ID NO.126) (Arabidopsis thaliana, UniProt P55826, L479N/V365L/Y426V).
T2 construct: made in house; host or cells: E. coli BL21 (DE3) hemG, crude extract
T2 sequence (P55826 35-537 V365L/Y426V/L479N): T1 sequence (P55826 35-537 S305L/Y361T/V365L/T431R/L479M) with L271S, T327Y, Y392V, R397T, M445N
The description is as above. The settings on record: read-out: percentage inhibition. It counts as biochemical.

Each structure is given as a SMILES string. Numbering of substitutions follows the chain as printed.

As for `C#CCN1C(=O)C(F)(F)Oc2cc(F)c(-n3c(=O)n(C)c(=S)n(C)c3=O)cc21` [Herbicide B, trifludimoxazin], in test [1], the inhibition at 0.1 ppm was 41%, the inhibition at 1 ppm is 100%, the inhibition at 10 ppm worked out at 97% and the inhibition at 100 ppm was 98%. Moreover, in test [2], the inhibition at 0.1 ppm amounted to 98%, the inhibition at 1 ppm turned out to be 100%, the inhibition at 10 ppm turned out to be 100% and the inhibition at 100 ppm was found to be 100%.
On to `CCOC(=O)COc1ncccc1Oc1cc(-n2c(=O)cc(C(F)(F)F)n(C)c2=O)c(F)cc1Cl` [Herbicide A, epyrifenacil], for which, in test [1], the inhibition at 0.1 ppm amounted to 15%, the inhibition at 1 ppm was found to be 69%, the inhibition at 10 ppm was 99% and the inhibition at 100 ppm was 94%. Further, in test [2], the inhibition at 0.1 ppm was 0%, the inhibition at 1 ppm is 36%, the inhibition at 10 ppm came out at 73% and the inhibition at 100 ppm is 90%.
With `CCOC(=O)[C@]1(C)CC(c2cc(-n3c(=O)n(C)c(=S)n(C)c3=O)c(F)cc2Cl)=NO1` [Herbicide D, ethyl (5S)-3-[2-chloro-5-(3,5-dimethyl-2,6-dioxo-4-thioxo-1,3,5-triazinan-1-yl)-4-fluoro-phenyl]-5-methyl-4H-isoxazole-5-carboxylate], in test [1], the inhibition at 0.1 ppm was determined as 12%, the inhibition at 1 ppm worked out at 42%, the inhibition at 10 ppm came out at 89% and the inhibition at 100 ppm came out at 92%. In test [2], the inhibition at 0.1 ppm amounted to 12%, the inhibition at 1 ppm came to 33%, the inhibition at 10 ppm worked out at 89% and the inhibition at 100 ppm is 98%.
With `CC(C)N(C)S(=O)(=O)NC(=O)c1cc(-n2c(=O)cc(C(F)(F)F)n(C)c2=O)c(F)cc1Cl` [Herbicide E, saflufenacil], in test [1], the inhibition at 0.1 ppm worked out at 9%, the inhibition at 1 ppm worked out at 45%, the inhibition at 10 ppm turned out to be 82% and the inhibition at 100 ppm amounted to 91%. Also, in test [2], the inhibition at 0.1 ppm was 0%, the inhibition at 1 ppm worked out at 22%, the inhibition at 10 ppm stood at 77% and the inhibition at 100 ppm worked out at 94%.
In the case of `CCOC(=O)C1(C)CC(c2cc(-n3c(=O)cc(C(F)(F)F)n(C)c3=O)c(F)cc2Cl)=NO1` (stereo not drawn) [Herbicide C, 3-(2-chloro-4-fluoro-5-(3-methyl-2,6-dioxo-4-trifluoromethyl-3,6-dihydropyrimidin-1(2H)-yl)phenyl)-5-methyl-4,5-dihydroisoxazole-5-carboxylic acid ethyl ester], in test [1], the inhibition at 1 ppm came out at 78%, the inhibition at 10 ppm came out at 99% and the inhibition at 100 ppm was 97%. In test [2], the inhibition at 0.1 ppm turned out to be 4%, the inhibition at 1 ppm was 44%, the inhibition at 10 ppm came to 82% and the inhibition at 100 ppm was determined as 93%.

The record behind these values is patent US20260297542A1, “HERBICIDE RESISTANT PLANTS” (SYNGENTA CROP PROTECTION AG, priority 2023, published 2026).
